Measurements from patent US20200138854A1, “Method of Detecting and Quantifying Bile Acid from Saliva” (Ironwood Pharmaceuticals, Inc., priority 2017, published 2020).
“And” between values parts separate entries of the source, which are not always exact repeats. Equal values may be shown once. Read-outs that look alike come from different tables or passages of the source. Marks after values point to notes of the source that are not given here. One block for each compound: values may come before it.

Legend:
[1] = test system: conscious, pentagastrin-stimulated fistula dog; details: cited from earlier work
[2] = test system: intragastric pH; details: cited from earlier work
[3] = Long-term (1 month at −20° C. and −80° C.) stability in untreated human saliva; details: for % Bias QC-High / % CV QC-High / Difference from Fresh (%) QC-High / Mean concentration QC-High / Concentration QC-High / Fresh QCs (Batch 34) Mean at Time Zero, QC-High: untreated human saliva; for Concentration QC-High: run 35; for % Bias / Concentration, Mean / Difference from Fresh (%) / Concentration: 1 month; for Concentration: individual values
[4] = in vivo, 3 h
[5] = Frozen (−20° C.) short-term stability in cholestyramine-treated human saliva; details: for Concentration QC-LLOQ / Concentration QC-Mid / Concentration QC-High: run 33; for % Bias / Concentration, Mean / Concentration: −20° C.; for Concentration: individual values
Description: Quality control samples for the evaluation of accuracy and precision and for run acceptance were prepared on the day of sample extraction. QC samples prepared in cholestyramine-treated saliva are to be prepared in small volumes for analysis. Stability for these QC samples would be limited to short-term storage (i.e., 2 days) whereas untreated human saliva would be evaluated for long-term storage.
For stability in cholestyramine-treated human saliva, samples were prepared by spiking cholestyramine-treated human saliva with each analyte at the QC-LLOQ, QC-Low, QC-Mid and QC-High levels. The samples were stored in a −20° C. freezer. After 1 day and 2 days of storage, each sample was extracted in replicates of four for analysis.

[6] = 1 month
[7] = 1 month −20° C. storage, nominal 80.0 ng/mL
[8] = 1 month −80° C. storage, nominal 80.0 ng/mL
[9] = 1 Day at −20° C., nominal 0.500 ng/mL
[10] = 1 Day at −20° C., nominal 8.00 ng/mL
[11] = 1 Day at −20° C., nominal 80.0 ng/mL
[12] = 2 Days at −20° C., nominal 0.500 ng/mL
[13] = 2 Days at −20° C., nominal 8.00 ng/mL
[14] = 2 Days at −20° C., nominal 80.0 ng/mL
[15] = −20° C. Storage, QC-High, nominal 80.0 ng/mL
[16] = −80° C. Storage, QC-High, nominal 80.0 ng/mL
[17] = 1 Day, QC-High, nominal 80.0 ng/mL
[18] = 1 Day, QC-LLOQ, nominal 0.500 ng/mL
[19] = 1 Day, QC-Mid, nominal 8.00 ng/mL
[20] = 2 Days, QC-High, nominal 80.0 ng/mL
[21] = 2 Days, QC-LLOQ, nominal 0.500 ng/mL
[22] = 2 Days, QC-Mid, nominal 8.00 ng/mL

Compound: COC(=O)Nc1cccc(C)c1CNc1cccn2c(C)c(C)nc12 [BY841, (8-(2-methoxycarbonylamino-6-methyl-phenylmethylamino)-2,3-dimethyl-imidazo [1,2-a]-pyridine)]
intragastric pH [1]: ≤ 6
pH elevation compared with ranitidine and omeprazole [1]: superior to both ranitidine and omeprazole
effectiveness in comparison with the standard dose of omeprazole ([2]; 50 mg or 100 mg twice daily, Day one of treatment): markedly more effective
potency in comparison with the standard dose of omeprazole ([2]; 50 mg or 100 mg twice daily, following repeated daily administration): at least as potent as omeprazole
intragastric pH ([2]; single 50 mg oral dose): about 6

Long-term stability in untreated human saliva ([3]; at 80° C. (sic)): up to 1 month
Stability in Untreated Human Saliva ([3]; at −20° C.): 1 Month
Stability in Untreated Human Saliva ([3]; at −80° C.): 1 Month
Concentration in human saliva samples [4]: 1.65 ng/mL
Short-term stability in cholestyramine-treated human saliva [5]: up to 2 days
Stability in Treated Human Saliva [5]: 2 days
Compound: C[C@H](CCC(=O)O)[C@H]1CC[C@H]2[C@@H]3CC[C@@H]4C[C@H](O)CC[C@]4(C)[C@H]3C[C@H](O)[C@]12C [Deoxycholic Acid, Deoxycholic acid]

Compound: CC(CCC(=O)NCC(=O)O)C1CCC2C3C(O)CC4CC(O)CCC4(C)C3CCC12C (stereo not shown) [Glycochenodeoxycholic Acid, Glycochenodeoxycholic acid]
% Bias QC-High [3, 7]: −4.9%
% CV QC-High [3, 7]: 2.4%
Difference from Fresh (%) QC-High [3, 7]: −4.4%
Mean concentration QC-High [3, 7]: 76.1 ng/mL
Concentration QC-High [3, 7]: 74.0 ng/mL and 77.4 ng/mL and 76.9 ng/mL
% Bias QC-High [3, 8]: −3.6%
% CV QC-High [3, 8]: 5.0%
Difference from Fresh (%) QC-High [3, 8]: −3.1%
Mean concentration QC-High [3, 8]: 77.1 ng/mL
Concentration QC-High [3, 8]: 80.6 ng/mL and 77.8 ng/mL and 73.0 ng/mL
Fresh QCs (Batch 34) Mean at Time Zero, QC-High ([3]; reference for −20° C. storage, nominal 80.0 ng/mL): 79.6 ng/mL
Fresh QCs (Batch 34) Mean at Time Zero, QC-High ([3]; reference for −80° C. storage, nominal 80.0 ng/mL): 79.6 ng/mL
Long-term stability in untreated human saliva [6]: up to 1 month
Stability in Untreated Human Saliva [6]: 1 Month
% Bias QC-LLOQ [5, 9]: 9.1%
% CV QC-LLOQ [5, 9]: 4.7%
Mean concentration QC-LLOQ [5, 9]: 0.546 ng/mL
Concentration QC-LLOQ [5, 9]: 0.538 ng/mL and 0.551 ng/mL and 0.516 ng/mL and 0.578 ng/mL
% Bias QC-Mid [5, 10]: −2.4%
% CV QC-Mid [5, 10]: 2.4%
Mean concentration QC-Mid [5, 10]: 7.81 ng/mL
Concentration QC-Mid [5, 10]: 7.56 ng/mL and 7.99 ng/mL and 7.92 ng/mL and 7.76 ng/mL
% Bias QC-High [5, 11]: −1.3%
% CV QC-High [5, 11]: 2.2%
Mean concentration QC-High [5, 11]: 78.9 ng/mL
Concentration QC-High [5, 11]: 79.3 ng/mL and 80.9 ng/mL and 76.6 ng/mL and 78.9 ng/mL
% Bias QC-LLOQ [5, 12]: 16.5%
% CV QC-LLOQ [5, 12]: 4.1%
Mean concentration QC-LLOQ [5, 12]: 0.583 ng/mL
Concentration QC-LLOQ [5, 12]: 0.596 ng/mL and 0.597 ng/mL and 0.555 ng/mL and 0.674^a ng/mL
% Bias QC-Mid [5, 13]: 2.1%
% CV QC-Mid [5, 13]: 3.8%
Mean concentration QC-Mid [5, 13]: 8.17 ng/mL
Concentration QC-Mid [5, 13]: 7.71 ng/mL and 8.40 ng/mL and 8.22 ng/mL and 8.33 ng/mL
% Bias QC-High [5, 14]: 0.9%
% CV QC-High [5, 14]: 2.9%
Mean concentration QC-High [5, 14]: 80.8 ng/mL
Concentration QC-High [5, 14]: 78.3 ng/mL and 80.4 ng/mL and 80.3 ng/mL and 84.0 ng/mL
Short-term stability in cholestyramine-treated human saliva [5]: up to 2 days
Stability in Treated Human Saliva [5]: 2 days

Compound: CC(CCC(=O)NCC(=O)O)C1CCC2C3CCC4CC(O)CCC4(C)C3CC(O)C12C (stereo not shown) [Glycodeoxycholic Acid, Glycodeoxycholic acid]
% Bias [3, 15]: −3.9%
Concentration, Mean [3, 15]: 76.9 ng/mL
Difference from Fresh (%) [3, 15]: 0.7%
Concentration [3, 15]: 75.5 ng/mL and 75.9 ng/mL and 79.2 ng/mL
% Bias [3, 16]: −0.1%
Concentration, Mean [3, 16]: 79.9 ng/mL
Difference from Fresh (%) [3, 16]: 4.7%
Concentration [3, 16]: 81.9 ng/mL and 80.0 ng/mL and 77.8 ng/mL
Fresh QCs (Batch 34) Mean at Time Zero ([3]; QC-High, nominal 80.0 ng/mL): 76.3 ng/mL
Long-term stability in untreated human saliva [6]: up to 1 month
Stability in Untreated Human Saliva [6]: 1 Month
Short-term stability in cholestyramine-treated human saliva [5]: up to 2 days
Stability in Treated Human Saliva [5]: 2 days
% Bias [5, 17]: −5.0%
Concentration, Mean [5, 17]: 76.0 ng/mL
Concentration [5, 17]: 76.0 ng/mL and 78.9 ng/mL and 73.6 ng/mL and 75.5 ng/mL
% Bias [5, 18]: −1.1%
Concentration, Mean [5, 18]: 0.495 ng/mL
Concentration [5, 18]: 0.500 ng/mL and 0.472 ng/mL and 0.488 ng/mL and 0.519 ng/mL
% Bias [5, 19]: −5.0%
Concentration, Mean [5, 19]: 7.60 ng/mL
Concentration [5, 19]: 7.43 ng/mL and 8.14 ng/mL and 7.61 ng/mL and 7.21 ng/mL
% Bias [5, 20]: −6.1%
Concentration, Mean [5, 20]: 75.2 ng/mL
Concentration [5, 20]: 74.0 ng/mL and 73.3 ng/mL and 75.6 ng/mL and 77.7 ng/mL
% Bias [5, 21]: 15.0%
Concentration, Mean [5, 21]: 0.575 ng/mL
Concentration [5, 21]: 0.654^a ng/mL and 0.589 ng/mL and 0.551 ng/mL and 0.599 ng/mL
% Bias [5, 22]: 2.5%
Concentration, Mean [5, 22]: 8.20 ng/mL
Concentration [5, 22]: 7.91 ng/mL and 7.87 ng/mL and 8.54 ng/mL and 8.49 ng/mL
